Experimental findings from EP0494754A1, “3-hydroxypyridin-4-one derivatives as pharmaceutical compositions” (BRITISH TECHNOLOGY GROUP LTD, priority 1991, dated 1992) are described below.

Common to all, as to type: cell-based
Test [1] concerns P. falciparum. Kind of test: Inhibition of growth of P. falciparum in red cell culture (tritiated hypoxanthine uptake, continuous exposure to chelator). The settings on record: for minimal effective concentration: Plasmodium falciparum, further study, method not detailed, read-out: dosage level at which marked growth inhibition was observed; for level of activity against red blood cells parasitized by P. falciparum (relative ranking): comparison between compounds, no figures; for growth inhibition of P. falciparum: 50 µmol/l iron binding concentration, after 30 hours, Figure 2; for percentage inhibition of growth after 30 hours as compared with the controls: iron binding concentration of 100 µmol of iron per litre, Figure 1. The procedure: (A) An uncloned strain of P. falciparum, ITO4, was grown on blood group O red cells using a modification of the method described by Trager et al in Science, 1976, […], 673. An atmopshere consisting of 1% oxygen, 3% carbon dioxide and 96% nitrogen was maintained throughout the experiments. Red cells were suspended at a hematocrit of 3% in RPMI 1640 that had been supplemented with 10% v/v human serum, 2 g/l glucose, 4 mM NaOH, 25 µg/ml gentamicin, 1.9 mM glutamine and 25 mM HEPES to form complete medium. For experimental purposes the red cells were then further diluted with the same medium to a final hematocrit of 1.5%. Synchronised parasite cultures were obtained using a combination of sorbitol lysis and gelatin flotation, as described respectively by Jensen et al in Am. J. Trop. Med. Hyg., 1978, 27, 1274 and Lambros et al in J. Parasitol., 1979, 65, 418, thus ensuring that only young ring forms remained. The starting parasitemia in each experiment was between 0.1 and 0.5%.
A red cell suspension containing only recently synchronised ring parasites was treated with 0.2 µCi of tritiated hypoxanthine per 100 µl of red cell suspension and one of ten chelating agents as identified in the Table was added in complete medium to the suspension in an amount such as to produce an iron binding concentration of 100 µmol of iron per litre (all of the chelators combine with iron in a ratio of 3 moles of chelator:1 mole of iron apart from the chelator number 10, desferrioxamine, which combines in a 1:1 molar ratio). The test cultures were immediately dispersed in 200 µl aliquots into 96 well microculture plates. Each chelator was tested in three or more wells and the whole experiment was carried out at least twice for each chelator. Control cultures were used in each experiment which contained no iron chelator.
The growth of the P. falciparum parasites was assessed both by light microscopy examination of thin films that had been stained with Giemsa and through measurement of tritiated hypoxanthine uptake, the cell cultures being harvested onto glass fibre filters and radioactivity, in terms of beta emission from each well, being measured in a flat bed liquid scintillation counter as described by Potter et al in Phys. Med. Biol., 1986, 31(4), 361.
The chelators tested consisted of 1-(2′-carboxyethyl)-3-hydroxy-2-methylpyridin-4-one (R₁ = CH₂CH₂CO₂H, R₂ = CH₃, R₃ = R₄ = H; compound 1) and, for the purposes of comparison with this chelator, nine other chelators not of formula (I) as defined hereinbefore, of which compounds 2 to 9 are 3-hydroxypyridin-4-ones and compound 10 is desferrioxamine. […] These findings were supported by a morphological examination of red cells sampled from the cultures. […] (B) The effect of using different dosage levels than the 100 µmol/l level used in (A) was studied employing the same procedure but using four dosage levels of 10 µmol/l, 25 µmol/l, 50 µmol/l and […]. Only the eight chelators which produced an inhibitory effect at 100 µmol/l were studied and controls containing no iron chelator were again employed.

A further test has as its system MEL cells, clone 585. Kind of test: Inhibition of growth of murine erythroleukaemia (MEL) cells, cell counting. The settings on record: 50 µmol/l iron binding concentration; after 30 hours; Figure 2. The protocol: MEL cells, clone 585, were grown in suspension culture at 37°C in RPMI 1640 that had been supplemented with 13% v/v foetal calf serum, 25 µl/ml gentamicin, 1.9 mM glutamine and 2% diaminopurine as described by Peto et al in Br. J. Haematol., 1983, 54, 623. The cultures were maintained in an atmosphere containing 5% carbon dioxide and passaged every 3-4 days at a seeding concentration of 1-2 x 10⁴/ml to ensure that the cells were continually in logarithmic growth phase. Under these conditions, the doubling time for cell growth was 30-36 hours.
10 ml volumes of cell suspension were incubated in 50 ml flasks with each of the ten chelators identified in the Table at a 50 µmol/l iron binding concentration, controls being employed which contained no chelator. 400 µl aliquots were removed in duplicate for growth assessment at 24 hour intervals over the next four days. The experiment was repeated on three separate occasions, the initial cell concentration in each case being 2-3 x 10⁴ cells/ml. Cell growth was assessed both by examination of cultures using light microscopy and by cell counting. At various times throughout each experiment, 400 µl culture was added to 19.6 ml Isoton and the number of particles counted using a Coulter Counter ZN set at threshold 20 and attenuation 0.4
The effect of the different chelators on growth of the MEL cells after 30 hours was compared with the effect produced after a similar time by the same chelators at a 50 µmol/l iron binding concentration using the procedure described in Example 2(A). The results are illustrated in Figure 2. It will be seen that the compounds 2, 3, 4, 5, 6, 9 and 10 inhibited growth of MEL cells and of P. falciparum, the minimum growth inhibition being 80% and 70% respectively. […] When these two groups of chelators were examined together a close linear correlation (r = 0.978) was found between the degree of growth inhibition produced in both types of cell for each chelator studied. The compound 1 was distinguished from all of the other chelators in being the only one to have no significant inhibitory effect on the growth of MEL cells (<10%) whilst at the same time producing a substantial inhibitory effect on the growth of P. falciparum (>75%).

Test [2] has as its system P. falciparum. The test is described as follows: 6 hour pulse exposure at different stages of the first parasite cycle, growth by tritiated hypoxanthine uptake. Set-up: dose or concentration left out as unconfirmed. The conditions noted are these: Plasmodium falciparum. The procedure: In the case of 2-carboxymethyl-3-hydroxy-1-methylpyridin-4-one, 1-(2-carboxyethyl)-2-ethyl-3-hydroxypyridin-4-one and 1-(3-carboxypropyl)-2-methyl-3-hydroxypyridin-4-one a dosage level of 0.5 µmol/l was required to produce a similar level of growth inhibition and in the case of 3-hydroxy-2-methyl-1-(2-sulphoethyl)pyridin-4-one a dosage level of 1 µmol/l was required. (C) A culture of ring parasites obtained as in (A) was dispensed in 3 ml volumes into separate flasks. Different cultures were exposed during a 6 hour period to the compound 1 in a 100 µmol/l iron binding concentration at different stages during the first parasite cycle and controls containing no chelator were again employed. At the end of each 6 hour pulse, all cultures were washed twice in RPMI 1640 and the pellet was resuspended in complete medium. At 40 hours, when cells from cultures that had not been exposed at any time to a chelator contained segmenting schizonts, tritiated hypoxanthine was added to the incubation medium of all the cultures. Growth of the parasites was assessed after further periods of 42 hours (during second cycle), 65 hours (during third cycle) and 84 hours (during fourth cycle). Each pulse of compound 1 was duplicated in separate flasks. Morphologically, synchrony of the cultures was clearly lost during the third parasite cycle.
Furthermore, no morphological differences were detected between parasites that were sampled from these cultures and untreated parasites. On the other hand, incubation with compound 1 during the schizont stage (24-30 hours) of parasite development did produce an inhibitory effect on the growth of P. falciparum resulting in 38% and 30% growth inhibition during the second and third cycles. Morphologically these cultures contained a mixed population of degenerate forms and young ring parasites with evidence of red cell reinvasion. Thus it will be seen that the effect of compound 1 is maximised during the early schizont stage of the development of the parasite. However, the employment of 6 hour pulses in order to compare the effects of the compound at different stages, as opposed to the continuous treatment employed in (A), did lead to a lower level of anti-malarial effect.

SMILES strings stand for the structures. Like-named read-outs stand apart in the source and are kept apart here.

On to `Cc1c(O)c(=O)ccn1CCCC(=O)O` [(16), 1-(3-carboxypropyl)-2-methyl-3-hydroxypyridin-4-one], for which, in the test on P. falciparum [1], the minimal effective concentration came out at 0.5 µM and the “level of activity against red blood cells parasitized by P. falciparum (relative ranking)” value (“level … by P. falciparum (relative ranking)” below) is “higher level of activity than compound (9)”.

Consider `Cn1ccc(=O)c(O)c1CC(=O)O` [(5), 2-carboxymethyl-3-hydroxy-1-methylpyridin-4-one], for which, in the test on P. falciparum [1], the minimal effective concentration amounted to 0.5 µM.

Regarding `Cc1c(O)c(=O)ccn1CCCCCC(=O)NCCC(=O)O` [compound 8, 1-(5-(N-(2-carboxyethyl)-carbamoyl)pentyl)-3-hydroxy-2-methylpyridin-4-one], the “growth inhibition of MEL cells” value in the test on MEL cells, clone 585 is on record as “little inhibitory effect”. For the same compound, in the test on P. falciparum [1], the “growth inhibition of P. falciparum” value is listed as “little inhibitory effect” and the “percentage inhibition of growth after 30 hours as compared with the controls” value (“percentage inhibition of growth” below) was “less than 12%”.

Consider `Cc1c(O)c(=O)ccn1CCC(=O)O` [compound 1, 1-(2-carboxyethyl)-3-hydroxy-2-methylpyridin-4-one], for which the “growth inhibition of MEL cells” value in the test on MEL cells, clone 585 was under 10%. In addition, the “growth inhibition of P. falciparum” value in the test on P. falciparum [1] is listed as over 75%. The minimal effective concentration in the test with P. falciparum [1] was determined as 0.1 µM. Further, the “level … by P. falciparum (relative ranking)” value in the test on P. falciparum [1] is “higher level of activity against red blood cells parasitized by P. falciparum than compounds (12) and (16)”. In addition, the “percentage inhibition of growth” value with P. falciparum [1] is listed as “more than 65%”. Also, the inhibition with P. falciparum [2] (6 hour pulse at 6-12 hours of first cycle, read-out: growth inhibition during the third cycle) worked out at 0%; in the test on P. falciparum [2] (6 hour pulse at 12-18 hours of first cycle, read-out: growth inhibition during the second cycle), 11.4%; in the test on P. falciparum [2] (6 hour pulse at 12-18 hours of first cycle, read-out: growth inhibition during the third cycle) it was 12%; in the test with P. falciparum [2] (6 hour pulse at 18-24 hours of first cycle, read-out: growth inhibition during the second cycle), 0%; with P. falciparum [2] (6 hour pulse at 18-24 hours of first cycle, read-out: growth inhibition during the third cycle), 0%; in the test on P. falciparum [2] (6 hour pulse during the schizont stage (24-30 hours), read-out: growth inhibition during the second cycle), 38%. In addition, the inhibition in the test on P. falciparum [2] (6 hour pulse during the schizont stage (24-30 hours), read-out: growth inhibition during the third cycle) was 30%.

In the case of `Cc1c(O)c(=O)ccn1CCCCCC(=O)O` [compound 7, 1-(5-carboxypentyl)-3-hydroxy-2-methylpyridin-4-one], the “growth inhibition of MEL cells” value with MEL cells, clone 585 was “little inhibitory effect”. Further, in the test with P. falciparum [1], the “growth inhibition of P. falciparum” value is “little inhibitory effect” and the “percentage inhibition of growth” value is “less than 12%”.

`Cc1c(O)c(=O)ccn1C` [compound 2, 3-hydroxy-1,2-dimethylpyridin-4-one]: in the test with MEL cells, clone 585, the “growth inhibition of MEL cells” value is at least 80%. For the same compound, in the test on P. falciparum [1], the “growth inhibition of P. falciparum” value is at least 70% and the “percentage inhibition of growth” value is on record as “more than 65%”.

For the compound `CC1=NC=CC(=O)C1O` (stereo not shown) [compound 3, 3-hydroxy-2-methylpyridin-4-one], in the test on MEL cells, clone 585, the “growth inhibition of MEL cells” value is reported as at least 80%. For the same compound, in the test on P. falciparum [1], the “growth inhibition of P. falciparum” value is on record as at least 70% and the “percentage inhibition of growth” value is “more than 65%”.

For `COCCn1ccc(=O)c(O)c1C` [compound 6, 3-hydroxy-1-(2-methoxyethyl)-2-methylpyridin-4-one], the “growth inhibition of MEL cells” value in the test with MEL cells, clone 585 was at least 80%. Further, in the test on P. falciparum [1], the “growth inhibition of P. falciparum” value is reported as at least 70% and the “percentage inhibition of growth” value is recorded as “more than 65%”.

Take `Cc1c(O)c(=O)ccn1CC(=O)O` [compound (9), 1-carboxymethyl-3-hydroxy-2-methylpyridin-4-one]: the “level … by P. falciparum (relative ranking)” value with P. falciparum [1] is on record as “somewhat greater than that of the compound 3-hydroxy-2-methyl-1-(2-sulphoethyl)pyridin-4-one”.

On to `Cc1c(O)c(=O)ccn1CCS(=O)(=O)O` [3-hydroxy-2-methyl-1-(2-sulphoethyl)-pyridin-4-one], for which the minimal effective concentration in the test on P. falciparum [1] was determined as 1 µM.

In the case of `Cc1c(O)c(=O)ccn1CCO` [compound 4, 3-hydroxy-1-(2-hydroxyethyl)-2-methylpyridin-4-one], the “growth inhibition of MEL cells” value in the test on MEL cells, clone 585 is at least 80%. In the test with P. falciparum [1], the “growth inhibition of P. falciparum” value is given as at least 70% and the “percentage inhibition of growth” value is “more than 65%”.

As to `Cc1c(O)c(=O)ccn1CCN.Cl` [compound 5, 1-(2-aminoethyl)-3-hydroxy-2-methylpyridin-4-one hydrochloride], the “growth inhibition of MEL cells” value in the test with MEL cells, clone 585 is on record as at least 80%. In addition, in the test with P. falciparum [1], the “growth inhibition of P. falciparum” value is reported as at least 70% and the “percentage inhibition of growth” value is on record as “more than 65%”.

On to `CCc1c(O)c(=O)ccn1CCC(=O)O` [(12), 1-(2-carboxyethyl)-2-ethyl-3-hydroxypyridin-4-one], for which, in the test with P. falciparum [1], the minimal effective concentration amounted to 0.5 µM and the “level … by P. falciparum (relative ranking)” value is “higher level of activity than compound (9)”.

For the compound `CCc1c(O)c(=O)ccn1C` [compound 9, 2-ethyl-3-hydroxy-1-methyl-pyridin-4-one], in the test with MEL cells, clone 585, the “growth inhibition of MEL cells” value was at least 80%. Also, in the test on P. falciparum [1], the “growth inhibition of P. falciparum” value is reported as at least 70% and the “percentage inhibition of growth” value is given as “more than 65%”.

One may read the inhibition as the share of the control response that was lost under treatment.
